Experimental data published in patent US20240368096A1 (Enanta Pharmaceuticals, Inc., priority 2022, published 2024).

The compounds below were run on HBV (assay: HBV infection in HepG2-NTCP cells (HBeAg AlphaLISA in supernatants)). Conditions: Hepatitis B virus, 192 h; HBV infection of HepG2-NTCP cells; HBeAg in supernatants at day 8 post infection; read-out: Cellular EC50.
Format: cell-based
In short: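 Readout was day-8 supernatant HBeAg by AlphaLISA, with EC50 set against DMSO controls and binned A<0.1 μM, B 0.1-1 μM, C>1 μM. Compounds were added 2 h before HBV (2000 GE/cell, 4% PEG, 0.5% DMSO) to HepG2-NTCP A3 cells; from day 1 medium held 2.5% DMSO.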
For CN1[C@H](C2CCCCC2)CN(c2ccccc2)c2cc(Cl)c(-c3cc4c(c(C(=O)O)c3)OC(F)(F)O4)cc2S1(=O)=O [Example 154, (R)-6-(7-chloro-3-cyclohexyl-2-methyl-1,1-dioxido-5-phenyl-2,3,4,5-tetrahydrobenzo[f][1,2,5]thiadiazepin-8-yl)-2,2-difluorobenzo[d][1,3]dioxole-4-carboxylic acid], the EC50 was 100 to 1000 nM. CC(C)CS(=O)(=O)Nc1cc(-c2cc3c(cc2Cl)N(c2ccccc2)C[C@@H](C2CCCCC2)N(C)S3(=O)=O)sc1C(=O)O [Example 276] was tested, and the EC50 was under 100 nM. In the case of CC(C)CC1CN(c2ccccc2)c2cc(N3CCCC3)c(-c3cccc(C(=O)O)c3)cc2S(=O)(=O)N1C (centres unmarked) [Example 544], the EC50 is reported as 100 to 1000 nM. Work on CN1[C@H](C2CCCCC2)CN(c2ccccc2)c2cc(OCC3CN(C(=O)OC(C)(C)C)C3)c(-c3cc(F)c(C(=O)O)s3)cc2S1(=O)=O [Example 509] yielded an EC50 of under 100 nM. CN1[C@H](C2CCCCC2)CN(c2ccccc2)c2cc(Cl)c(-c3ccc(NS(=O)(=O)CC4CCC4)c(C(=O)O)c3)cc2S1(=O)=O [Example 272] was tested, and the EC50 was under 100 nM. With CN1[C@H](C2CC(F)(F)C2)CN(c2ccccc2)c2cc(Cl)c(-c3cc(F)c(F)c(C(=O)O)c3)cc2S1(=O)=O [Example 31] the EC50 was 100 to 1000 nM. CN1[C@H](C2CCCCC2)CN(c2cncnc2)c2cc(Cl)c(-c3ccc(F)c(C(=O)O)c3)cc2S1(=O)=O [Example 286] gave an EC50 of 100 to 1000 nM. In the case of CC(C)C[C@@H]1CN(c2ccccc2)c2cc(Cl)c(-c3cccc(P(=O)(O)O)c3)cc2S(=O)(=O)N1C [Example 233], the EC50 is reported as 100 to 1000 nM. Work on COCCOc1cc2c(cc1-c1ccc(Cl)c(C(=O)O)c1)S(=O)(=O)N(C)[C@H](CC(C)C)CN2c1ccccc1 [Example 445] yielded an EC50 of 100 to 1000 nM. With CN1[C@H](C2CCC2)CN(c2ccccc2)c2cc(Oc3ccccc3F)c(-c3ccc(F)c(C(=O)O)c3)cc2S1(=O)=O [Example 463] the EC50 was under 100 nM. For CN1[C@H](C2CCCCC2)CN(c2ccccc2)c2cc(C3CCN(C(=O)c4cnn(C)c4)CC3)c(-c3ccc(F)c(C(=O)O)c3)cc2S1(=O)=O [Example 598], the EC50 was over 1000 nM. CN1[C@H](C2CCCCC2)CN(c2ccccc2)c2cc(OC3CCN(C(=O)OC(C)(C)C)CC3)c(-c3ccc(F)c(C(=O)O)c3)cc2S1(=O)=O [Example 393, (R)-5-(7-((1-(tert-butoxycarbonyl)piperidin-4-yl)oxy)-3-cyclohexyl-2-methyl-1,1-dioxido-5-phenyl-2,3,4,5-tetrahydrobenzo[f][1,2,5]thiadiazepin-8-yl)-2-fluorobenzoic acid] gave an EC50 of under 100 nM. CC(=O)N1CCC(c2cc3c(cc2-c2ccc(F)c(C(=O)O)c2)S(=O)(=O)N(C)[C@H](C2CCCCC2)CN3c2ccccc2)CC1 [Example 597] was tested, and the EC50 was over 1000 nM. In the case of CN1[C@H](CN2CCOCC2)CN(c2ccccc2)c2cc(Cl)c(-c3ccc(F)c(C(=O)O)c3)cc2S1(=O)=O [Example 109], the EC50 is reported as over 1000 nM. CN1[C@H](C2CCCCC2)CN(c2ccccc2)c2cc(Cl)c(-c3cc(Cl)c(C(=O)O)s3)cc2S1(=O)=O [Example 117] gave an EC50 of under 100 nM. CC(C)C[C@@H]1CN(c2ccccc2)c2cc(OC3COC3)c(-c3ccc(F)c(C(=O)O)c3)cc2S(=O)(=O)N1C [Example 443] was tested, and the EC50 was 100 to 1000 nM. CC(C)C[C@@H]1CN(c2ccccc2)c2cc(Nc3cccc(F)c3)c(-c3ccc(Cl)c(C(=O)O)c3)cc2S(=O)(=O)N1C [Example 547] showed an EC50 of 100 to 1000 nM. CC(C)COC(=O)Nc1c(F)cc(-c2cc3c(cc2Cl)N(c2ccccc2)C[C@@H](C2CCCCC2)N(C)S3(=O)=O)cc1C(=O)O [Example 277] showed an EC50 of under 100 nM. With CN1[C@H](C2CCCCC2)CN(c2cnc(C(F)(F)F)nc2)c2cc(Cl)c(-c3ccc(F)c(C(=O)O)c3)cc2S1(=O)=O [Example 288] the EC50 was 100 to 1000 nM. For CN1[C@H](COc2ccccc2)CN(c2ccccc2)c2cc(Cl)c(-c3ccc(F)c(C(=O)O)c3)cc2S1(=O)=O [Example 100, (S)-5-(7-chloro-2-methyl-1,1-dioxido-3-(phenoxymethyl)-5-phenyl-2,3,4,5-tetrahydrobenzo[f][1,2,5]thiadiazepin-8-yl)-2-fluorobenzoic acid], the EC50 was over 1000 nM.
